Common to all, as to assay: NCI tumour cell line growth inhibition, 48 h
For experiment [1], the system named is DU-145.
The subject of experiment [2] is CCRF-CEM.
For experiment [3], the system named is A498.
Experiment [4] deals with NCI-H226.
The subject of experiment [5] is OVCAR-3.
Experiment [6] has as its system NCI-H23.
The test system of experiment [7] is NCI-H522.
Experiment [8] relates to SF-268.
Experiment [9] relates to SF-539.
Experiment [10] relates to SNB-75.
Experiment [11] concerns SR.
For experiment [12], the system named is IGROV-1.
Experiment [13] relates to KM12.
In experiment [14] the test system is HCT-15.
Experiment [15] has as its system MDA-N.
For experiment [16], the system named is SF-295.
Experiment [17] relates to K562.
Experiment [18] deals with MOLT-4.
The test system of experiment [19] is COLO 205.
Experiment [20] deals with SK-OV-3.

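Method: 48-hour compound exposure of cells in 96-well plates, five concentrations, linear interpolation of endpoints. Here, GI50 denotes the concentration required for 50% inhibition of growth.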 Calls of active or inactive are those of the source. No stated cut-off is given here; in the data, active = GI50 up to about 1.1 µM and inactive = higher.

As for `COc1ccccc1/C=C/c1c(N)ncnc1Nc1cccc(Cl)c1`, the GI50 in [1] was 36.6 µM (inactive); in experiment [2], 0.16 µM (active); in experiment [3], 12.7 µM (inactive); in [4], 17.4 µM (inactive); in [5], 25.2 µM (inactive); in experiment [6], 20.8 µM (inactive). For the same compound, the GI50 is 10.8 µM (inactive) in experiment [7]; 16.1 µM (inactive) in [8]; 18.3 µM (inactive) in experiment [9]; 9.53 µM (inactive) in experiment [10]; 0.132 µM (active) in experiment [11]; 1.69 µM (inactive) in experiment [12]. For the same compound, the GI50 in experiment [13] was 36.5 µM (inactive); in experiment [14] it was 15.9 µM; in [15], 25 µM (inactive); in experiment [16], 26.2 µM (inactive); in experiment [17], 0.376 µM (active); in experiment [18] it was 0.311 µM (active).

Regarding `COc1cc(S(=O)(=O)Nc2nc(-c3ccc(N4C(=O)C(CC(=O)O)SC4c4ccccc4O)cc3)cs2)ccc1Cl` (stereo not drawn), the GI50 in [1] is > 100 µM (inactive); in [3], 29.1 µM (inactive); in experiment [4], 61.4 µM (inactive); in experiment [5], 55.7 µM (inactive); in [6] it was 22.1 µM (inactive); in [7], 85.3 µM (inactive). The GI50 in experiment [8] is > 100 µM (inactive); in experiment [19], 83.4 µM (inactive); in experiment [9] it was > 100 µM (inactive); in experiment [10], > 100 µM (inactive); in experiment [11] it was 99.8 µM (inactive); in experiment [12], 34.9 µM (inactive). The GI50 was 78.7 µM (inactive) in experiment [13]; 47.5 µM in experiment [14]; > 100 µM (inactive) in experiment [15]; 62.4 µM (inactive) in experiment [20]; 51.2 µM (inactive) in experiment [16]; 38.2 µM (inactive) in experiment [17]. In experiment [18], the GI50 was 49.5 µM (inactive).

Regarding `COC(=O)[C@H]1[C@H](OC(=O)[C@@H](OC)c2ccccc2)ON2CC[C@@H](OC(=O)c3ccccc3)[C@H]12`, the GI50 was > 100 µM (inactive) in experiment [1]; > 100 µM (inactive) in experiment [2]; 9.38 µM (inactive) in experiment [3]; > 100 µM (inactive) in experiment [4]; > 100 µM (inactive) in experiment [6]; 2.65 µM (inactive) in [7]. The GI50 in experiment [8] is 54.3 µM (inactive); in experiment [19], > 100 µM (inactive); in experiment [10], 29 µM (inactive); in [11] it was > 100 µM (inactive); in experiment [12] it was 49.9 µM (inactive); in experiment [13], > 100 µM (inactive). For the same compound, the GI50 is more than 100 µM in [14]; > 100 µM (inactive) in [15]; > 100 µM (inactive) in [20]; 39.4 µM (inactive) in experiment [16]; > 100 µM (inactive) in experiment [17]; > 100 µM (inactive) in experiment [18].

For `CCCCCCCCCCCCCCCCNc1nc(=O)n(C2CC(O)C(CO)O2)cc1F` (stereo not drawn), the GI50 is 10 µM (inactive) in experiment [1]; > 10 µM (inactive) in experiment [2]; > 10 µM (inactive) in experiment [3]; 1.28 µM (inactive) in [4]; 13.9 µM (inactive) in experiment [5]; 4.85 µM (inactive) in experiment [6]. Also, the GI50 in experiment [7] is 5.28 µM (inactive); in [8], 2.93 µM (inactive); in experiment [19], 12.7 µM (inactive); in experiment [9] it was 0.284 µM (active); in experiment [10], 5.06 µM (inactive); in experiment [11] it was 4.01 µM (inactive). The GI50 in experiment [12] is 11.6 µM (inactive); in experiment [13], 13.8 µM (inactive); in experiment [14], 0.875 µM; in experiment [15] it was 16 µM (inactive); in experiment [20] it was 13.5 µM (inactive); in experiment [16] it was 16.5 µM (inactive). In addition, the GI50 in experiment [18] was 4.72 µM (inactive).

With `c1ccc2[nH]c3nc4ccccc4c-3cc2c1`, the GI50 is 1.26 µM (inactive) in experiment [1]; 0.197 µM (active) in experiment [2]; 3.33 µM (inactive) in experiment [3]; 1.02 µM (active) in experiment [4]; 0.615 µM (active) in experiment [6]; 0.0824 µM (active) in [7]. Besides, the GI50 was 0.598 µM (active) in [8]; 0.207 µM (active) in [19]; 0.367 µM (active) in [9]; 2.1 µM (inactive) in experiment [10]; 0.0441 µM (active) in [11]; 0.286 µM (active) in experiment [12]. For the same compound, the GI50 was 0.348 µM (active) in experiment [13]; 0.229 µM in experiment [14]; 0.641 µM (active) in experiment [15]; 0.839 µM (active) in experiment [20]; 0.5 µM (active) in experiment [16]; 0.189 µM (active) in experiment [17]. For the same compound, the GI50 in [18] was 0.0942 µM (active).

For the compound `CCN(CC)CCCC(C)Nc1ccnc2cc(Cl)ccc12` (stereo not drawn) [CHLOROQUINE PHOSPHATE], the GI50 in experiment [1] was 7.94 µM (inactive); in [2], 20.8 µM (inactive); in experiment [3] it was 24.3 µM (inactive); in experiment [5], 97.1 µM (inactive); in [6], > 84.7 µM (inactive); in [7] it was 25.8 µM (inactive). Besides, the GI50 was 60.7 µM (inactive) in experiment [8]; 9.38 µM (inactive) in experiment [19]; 16.6 µM (inactive) in experiment [9]; > 60.5 µM (inactive) in experiment [10]; 13.6 µM (inactive) in experiment [11]; 24.5 µM (inactive) in experiment [12]. Also, the GI50 in [13] was 31.8 µM (inactive); in experiment [14], 24.9 µM; in experiment [15] it was 16.6 µM (inactive); in experiment [20], > 76.7 µM (inactive); in experiment [16] it was 21 µM (inactive); in [17] it was 12.4 µM (inactive). Moreover, the GI50 in [18] is 15.2 µM (inactive).

As for `CC(C)(C)C(=O)O[C@H]1C=C[C@@H](O)[C@@H]2[C@H]1[C@@H]1C=C[C@H]2C1`, the GI50 in experiment [1] was 47.6 µM (inactive); in [2], 9.35 µM (inactive); in experiment [3], 20.3 µM (inactive); in experiment [5] it was 19.7 µM (inactive); in experiment [6], 12.1 µM (inactive); in [7] it was 17.4 µM (inactive). In addition, the GI50 was 27.9 µM (inactive) in [8]; 6.03 µM (inactive) in experiment [19]; 26.5 µM (inactive) in experiment [9]; 29.9 µM (inactive) in experiment [10]; 18.9 µM (inactive) in experiment [11]; 3.06 µM (inactive) in experiment [12]. The GI50 in [13] is 2.63 µM (inactive); in experiment [14] it was 20 µM; in [15], 19.3 µM (inactive); in experiment [20], 25.2 µM (inactive); in [16], 44.5 µM (inactive); in experiment [17], 31.9 µM (inactive). The GI50 in [18] is 13.4 µM (inactive).

On to `CCCC(=O)NC(Nc1ccc(F)cc1)(C(F)(F)F)C(F)(F)F`, for which the GI50 is 33.2 µM (inactive) in experiment [1]; > 100 µM (inactive) in [3]; > 100 µM (inactive) in [4]; > 100 µM (inactive) in experiment [5]; > 43.4 µM (inactive) in [6]; 27.4 µM (inactive) in [7]. Moreover, the GI50 in experiment [8] is > 100 µM (inactive); in experiment [19], 7.1 µM (inactive); in experiment [9], > 79.4 µM (inactive); in experiment [10] it was > 100 µM (inactive); in experiment [11], > 100 µM (inactive); in experiment [13], 2.49 µM (inactive). Moreover, the GI50 in [14] was 5.79 µM; in experiment [15] it was > 40.7 µM (inactive); in [20] it was > 100 µM (inactive); in experiment [16], 24.5 µM (inactive); in experiment [17], 0.1 µM (active); in experiment [18], 7.98 µM (inactive).

`CNc1ccc(C(=O)CC(O)CCC(C)C2OC(=O)CC(O)CC(=O)CC(O)CC(O)CC(O)CC(O)CC3(O)CC(O)C(C(=O)NCCN(C)C)C(CC(OC4OC(C)C(O)C(NC(=O)CN5CCN(C)CC5)C4O)\C=C/C=C\C=C/C=C/C=C/C=C\C=C/C2C)O3)cc1` (stereo not drawn): the GI50 is 3.22 µM (inactive) in experiment [1]; 2.56 µM (inactive) in experiment [3]; > 100 µM (inactive) in experiment [4]; 4.54 µM (inactive) in experiment [6]; 2.65 µM (inactive) in experiment [7]; 6.64 µM (inactive) in [8]. For the same compound, the GI50 in experiment [19] is 3.86 µM (inactive); in experiment [9], 37.7 µM (inactive); in experiment [10], > 100 µM (inactive); in experiment [11], 2.48 µM (inactive); in experiment [12], 7.67 µM (inactive); in experiment [13], 2.08 µM (inactive). The GI50 in [14] was 6.18 µM; in experiment [15], 6.46 µM (inactive); in [20], > 100 µM (inactive); in experiment [16] it was 25.2 µM (inactive); in experiment [17], 3.2 µM (inactive); in experiment [18], 4.48 µM (inactive).

Regarding `CNc1cc([N+](=O)[O-])ccc1C(=O)N1CCC[C@H]1CO`, the GI50 in experiment [1] is > 100 µM (inactive); in experiment [3] it was > 100 µM (inactive); in experiment [4] it was > 100 µM (inactive); in experiment [5] it was > 100 µM (inactive); in [7] it was > 100 µM (inactive); in experiment [8] it was 8.83 µM (inactive). In addition, the GI50 was > 100 µM (inactive) in [9]; > 100 µM (inactive) in [10]; 44.3 µM (inactive) in experiment [11]; > 100 µM (inactive) in [12]; > 100 µM (inactive) in experiment [13]; more than 100 µM in experiment [14]. For the same compound, the GI50 in experiment [15], in [20], in experiment [16], in experiment [17] and in experiment [18] was > 100 µM (inactive) each time.

Consider `CC(=O)Nc1nnc(S(=O)(=O)NC(=S)Nc2ccc(Cl)cc2)s1`, for which the GI50 in experiment [1], in [2], in experiment [3], in experiment [5], in experiment [6] and in experiment [7] was > 100 µM (inactive) in each case. Besides, the GI50 in [8], in [19], in [9], in [10], in [11] and in experiment [12] was > 100 µM (inactive) throughout. Besides, the GI50 in experiment [13] was > 100 µM (inactive); in experiment [14] it was more than 100 µM; in [15] it was > 100 µM (inactive); in experiment [20], > 100 µM (inactive); in experiment [16], > 100 µM (inactive); in experiment [17], > 100 µM (inactive). Further, the GI50 in [18] is > 100 µM (inactive).

(Values after ChEMBL document CHEMBL1201862, “PubChem BioAssay data set” (2004).)
